From patent US20250092065A1, “2-(INDAZOL-5-YL)-6-(PIPERIDIN-4-YL)-1,7-NAPHTHYRIDINE DERIVATIVES AND RELATED COMPOUNDS AS MODULATORS FOR SPLICING NUCLEIC ACIDS AND FOR THE TREATMENT OF PROLIFERATIVE DISEASES” (REMIX THERAPEUTICS INC., priority 2022, published 2025)
Where two headings read alike, the source gives them in different places.

How the values were obtained:
Target C = test: RT-qPCR canonical junction panel assay, Target C mRNA; assay type: cell-based; details: Table 4, read-out: Target C IC50 (decrease in CJ mRNA levels)
Summary of the method: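 IC50 is the concentration giving 50% CJ decrease, from a 4-parameter logistic fit of percent response; response derived from ΔΔCt against housekeeper and DMSO over a fixed ΔCt window, with canonical exon-junction qPCR in compound-treated K562 or A673 cells.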

HTT mRNA = test: RT-qPCR splicing assay, HTT mRNA canonical (CJ) and alternative (AJ) junction; assay type: cell-based, human; details: Homo sapiens; for AC50: HTT alternative junction mRNA, read-out: HTT AJ (increase in AJ mRNA, AC50)
Summary of the method: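 Junction-specific RT-qPCR read-out: CJ and AJ isoform levels, housekeeper-normalized (GAPDH/GUSB/PPIA), ΔΔCt vs DMSO, converted to RQ then % response. Cells: A673 (DMEM/10% FBS, adhered 24 h) or K562 (IMDM/10% FBS). Compound 11-pt 3-fold, top 10 uM, 24 h, 37 °C.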

[1] = HTT canonical junction mRNA, RT-qPCR, read-out: HTT CJ (decrease in CJ mRNA levels, IC50)
[2] = canonical junction qPCR panel, Table 4, read-out: HTT IC50 (decrease in CJ mRNA levels)

Compound | IC50 (Target C) [nM] | IC50 (HTT mRNA; [1]) [nM] | IC50 (HTT mRNA; [2]) [nM] | AC50 (HTT mRNA; RT-qPCR) [nM]
Cc1nc2c(F)c(O)c(-c3ccc4nc(N5CC[C@H](NC(C)C)C5)ccc4n3)cc2o1 (single isomer, unassigned) [Compound 330] | < 100 | < 100 | < 100 | < 100
Cn1cc2cc(-c3ccc4nc(N5CC[C@H](N[C@H]6C[C@H](F)C6)C5)ccc4n3)c(O)c(F)c2n1 (single isomer, unassigned) [Compound 347] | < 100 | < 100 | < 100 | < 100
Cn1cc2cc(-c3ccc4nc(N5CC[C@@H](N[C@H]6C[C@H](F)C6)C5)ccc4n3)c(O)c(F)c2n1 (single isomer, unassigned) [Compound 349] | < 100 | < 100 | < 100 | < 100
Cc1nc2c(C)c(O)c(-c3ccc4nc(N5CC[C@H](N[C@H]6C[C@H](F)C6)C5)ccc4n3)cc2o1 (single isomer, unassigned) [Compound 351] | < 100 | < 100 | < 100 | < 100
Cc1nc2c(F)c(O)c(-c3ccc4nc(N5CC[C@@H](NC6(C)CC6)C5)ccc4n3)cc2o1 (stereo in doubt) [Compound 326, 4-fluoro-2-methyl-6-{6-[(3 S)-3-[(1-methylcyclopropyl)amino]pyrrolidin-1-yl]-1,5-naphthyridin-2-yl}-1,3-benzoxazol-5-ol] | < 100 | < 100 | < 100 | < 100
Cc1nc2c(F)c(O)c(-c3ccc4nc(N5CCC(NC6(C)CC6)C5)ccc4n3)cc2o1 (stereo in doubt) [Compound 327, 4-fluoro-2-methyl-6-{6-[(3R)-3-[(1-methylcyclopropyl)amino]pyrrolidin-1-yl]-1,5-naphthyridin-2-yl}-1,3-benzoxazol-5-ol] | < 100 | < 100 | < 100 | < 100
Cc1nc2c(C)c(O)c(-c3ccc4nc(N5CC[C@H](NC6CC6)C5)ccc4n3)cc2o1 [Compound 216] | < 100 | < 100 | < 100 | < 100
Cc1nc2c(C)c(O)c(-c3ccc4nc(N5CC[C@@H](NC6CC6)C5)ccc4n3)cc2o1 [Compound 217] | < 100 | < 100 | < 100 | < 100
Cc1nc2cc(O)c(-c3ccc4nc(N5CC[C@@H](NC6CCC6)C5)ccc4n3)cc2o1 [Compound 229] | 100 to 1000 | < 100 | < 100 | < 100
Cc1nc2c(C)c(O)c(-c3ccc4nc(N5CCC(NC6CCC6)C5)ccc4n3)cc2o1 (stereo not shown) [Compound 235] | 100 to 1000 | < 100 | < 100 | < 100
Cc1nc2c(C)c(O)c(-c3ccc4nc(N5CC[C@@H](NC6CCC6)C5)ccc4n3)cc2o1 [Compound 236] | 100 to 1000 | < 100 | < 100 | < 100
Cc1nc2c(C)c(O)c(-c3ccc4nc(N5CC[C@H](NC6CCC6)C5)ccc4n3)cc2o1 [Compound 237] | < 100 | < 100 | < 100 | < 100
Cc1cc(-c2ccc3nc(N4CCC(NC(C)(C)C)C4)ccc3n2)nc2cn(C)nc12 (stereo not shown) [Compound 248] | 1000 to 10000 | 1000 to 10000 | 1000 to 10000 | 100 to 1000
Cc1c(O)c(-c2ccc3nc(N4CC[C@H](NC(C)(C)C)C4)ccc3n2)cc2cn(C)nc12 [Compound 250] | < 100 | < 100 | < 100 | < 100
Cc1c(O)c(-c2ccc3nc(N4CCC(NC5CCC5)C4)ccc3n2)cc2cn(C)nc12 (stereo not shown) [Compound 288, 5-{6-[3-(cyclobutylamino)pyrrolidin-1-yl]-1,5-naphthyridin-2-yl}-2,7-dimethylindazol-6-ol] | 100 to 1000 | < 100 | < 100 | < 100
Cn1cc2nc(-c3ccc4nc(N5CCC(NC(C)(C)C)C5)ccc4n3)c(O)cc2n1 (stereo not shown) [Compound 298, 5-{6-[3-(tert-butylamino)pyrrolidin-1-yl]-1,5-naphthyridin-2-yl}-2-methylpyrazolo[4,3-b]pyridin-6-ol] | 100 to 1000 | < 100 | < 100 | < 100
Cc1c(O)c(-c2ccc3nc(N4CCC(NC5COC5)C4)ccc3n2)cc2cn(C)nc12 (stereo not shown) [Compound 302, 2,7-dimethyl-5-{6-[3-(oxetan-3-ylamino)pyrrolidin-1-yl]-1,5-naphthyridin-2-yl}Indazol-6-ol] | 1000 to 10000 | 100 to 1000 | 100 to 1000 | 100 to 1000

Continued, in another order:

IC50 (Target C) [nM] | IC50 (HTT mRNA; [1]) [nM] | IC50 (HTT mRNA; [2]) [nM] | Compound | AC50 (HTT mRNA; RT-qPCR) [nM]
< 100 | < 100 | < 100 | Cc1nc2c(F)c(O)c(-c3ccc4nc(N5CC[C@@H](NC(C)C)C5)ccc4n3)cc2o1 (single isomer, unassigned) [Compound 329] | < 100
100 to 1000 | 100 to 1000 | 100 to 1000 | Cc1nc2cc(O)c(-c3ccc4nc(N5CC[C@@H](N[C@H]6C[C@H](F)C6)C5)ccc4n3)cc2o1 (single isomer, unassigned) [Compound 348] | 100 to 1000
< 100 | < 100 | < 100 | Cc1nc2c(C)c(O)c(-c3ccc4nc(N5CC[C@@H](N[C@H]6C[C@H](F)C6)C5)ccc4n3)cc2o1 (single isomer, unassigned) [Compound 352] | < 100
< 100 | < 100 | < 100 | Cc1nc2c(C)c(O)c(-c3ccc4nc(N5CC[C@H](NC(C)(C)C)C5)ccc4n3)cc2o1 [Compound 214] | < 100
< 100 | < 100 | < 100 | Cn1cc2cc(-c3ccc4nc(N5CCC(NC6(C)CC6)C5)ccc4n3)c(O)cc2n1 (stereo not shown) [Compound 219] | < 100
100 to 1000 | < 100 | < 100 | Cc1nc2cc(O)c(-c3ccc4nc(N5CC[C@H](NC6CCC6)C5)ccc4n3)cc2o1 [Compound 230] | < 100
< 100 | < 100 | < 100 | Cc1nc2cc(O)c(-c3ccc4nc(N5CCC(NC(C)C)C5)ccc4n3)cc2o1 (stereo not shown) [Compound 231] | < 100
< 100 | < 100 | < 100 | Cc1c(O)c(-c2ccc3nc(N4CC[C@@H](NC(C)(C)C)C4)ccc3n2)cc2cn(C)nc12 [Compound 249] | < 100
> 10000 | > 10000 | > 10000 | COc1c(-c2ccc3nc(N4CCC(NC(C)(C)C)C4)ccc3n2)cc2c[nH]nc2c1C (stereo not shown) [Compound 251] | > 10000
100 to 1000 | < 100 | < 100 | Cc1cn2nc(-c3ccc4nc(N5CCC(NC6CC6)C5)ccc4n3)c(O)c2c(C)n1 (stereo not shown) [Compound 252] | 100 to 1000
100 to 1000 | < 100 | < 100 | Cc1c(O)c(-c2ccc3nc(N4CCC(NCC5CC5)C4)ccc3n2)cc2cn(C)nc12 (stereo not shown) [Compound 284, 5-(6-{3-[(cyclopropylmethyl)amino]pyrrolidin-1-yl}-1,5-naphthyridin-2-yl)-2,7-dimethylindazol-6-ol] | < 100
< 100 | < 100 | < 100 | Cc1nc2c(F)c(O)c(-c3ccc4nc(N5CCC(NC6CCC6)C5)ccc4n3)cc2o1 (stereo not shown) [Compound 293, 6-{6-[3-(cyclobutylamino)pyrrolidin-1-yl]-1,5-naphthyridin-2-yl}-4-fluoro-2-methyl-1,3-benzoxazol-5-ol] | < 100
> 10000 | 1000 to 10000 | 1000 to 10000 | Cn1cc2cc(-c3ccc4nc(N5CCC(NC67CC(C6)C7)C5)ccc4n3)c(O)cc2n1 (stereo not shown) [Compound 297, 5-[6-(3-{bicyclo[1.1.1]pentan-1-ylamino}pyrrolidin-1-yl)-1,5-naphthyridin-2-yl]-2-methylindazol-6-ol] | 1000 to 10000
1000 to 10000 | < 100 | < 100 | Cn1cc2cc(-c3ccc4nc(N5CC[C@H](N[C@H]6C[C@@H](F)C6)C5)ccc4n3)c(O)cc2n1 [Compound 299, 2-methyl-5-{6-[(3S)-3-{[(1s,3s)-3-fluorocyclobutyl]amino}pyrrolidin-1-yl]-1,5-naphthyridin-2-yl}indazol-6-ol] | 100 to 1000
< 100 | < 100 | < 100 | Cc1nc2c(C)c(O)c(-c3ccc4nc(N5CCC(NC6(C)CC6)C5)ccc4n3)cc2o1 (stereo not shown) [Compound 309, 2,4-dimethyl-6-(6-{3-[(1-methylcyclopropyl)amino]pyrrolidin-1-yl}-1,5-naphthyridin-2-yl)-1,3-benzoxazol-5-ol] | < 100
< 100 | < 100 | < 100 | Cc1nc2c(C)c(O)c(-c3ccc4nc(N5CCC(NC(C)C)C5)ccc4n3)cc2o1 (stereo not shown) [Compound 312, 6-{6-[3-(isopropylamino)pyrrolidin-1-yl]-1,5-naphthyridin-2-yl}-2,4-dimethyl-1,3-benzoxazol-5-ol] | < 100
< 100 | < 100 | < 100 | Cn1cc2cc(-c3ccc4nc(N5CCC(NC6CCC6)C5)ccc4n3)c(O)c(F)c2n1 (stereo not shown) [Compound 315, 5-{6-[3-(cyclobutylamino)pyrrolidin-1-yl]-1,5-naphthyridin-2-yl}-7-fluoro-2-methylindazol-6-ol] | < 100
